Test results published in patent publication US20230250393A1, “PRE-TREATING CARDIOMYOCYTES WITH ANTI-ARRHYTHMIC DRUGS TO REDUCE ENGRAFTMENT ARRHYTHMIA” (priority 2022, published 2023).
Read-outs that look alike come from different tables or passages of the source. Marks after values point to notes of the source that are not given here.

Key:
[1] = tested on: engraftment arrhythmia (EA); settings: for Effect on HR (heart rate) during EA / Effect: response on EA burden / Effect on rhythm: cardioversion / restoration of sinus rhythm: acute response, infarcted pigs with hESC-CM transplant in EA, dosages and routes as in Table 1; for Effect on EA heart rate and rhythm in the screen (overall): short-term intravenous infusion or oral treatment
From the text: The objective of this study was to identify a pharmacological regimen to attenuate arrhythmias following cardiac remuscularization therapy. This study was designed in two phases: the first, to observe the natural history of EA and screen various antiarrhythmic agents for efficacy, and the second, to test for efficacy (FIG. 1). All subjects were 30-40 kg castrated male Yucatan minipigs between 6-13 months of age (S&S Farms). In Phase 1, nine subjects underwent cardiac remuscularization therapy with 500×10^6 hESC-CM delivered by direct surgical transepicardial injections or later, by percutaneous transendocardial injections. The first four subjects (one non-infarcted and three infarcted) were followed to learn the natural history of EA and establish clinical endpoints and parameters for the Phase 2 drug trial. The subsequent five subjects underwent systematic dosing with antiarrhythmic agents with continuous electrocardiography (ECG) monitoring to determine effect on rhythm and rate (Table 1).
(§1) Telemetric ECG was continuously monitored in real-time from the time of myocardial infarction to detect the primary endpoint of cardiac death or unstable EA. Automated quantification of heart rate and arrhythmia burden was performed offline by a board-certified cardiologist using the ecgAUTO™ 3.3.5.10 software package (EMKA Technologies). Arrhythmia was defined as an ectopic beat (e.g. premature ventricular contraction) or rhythm (e.g. idioventricular rhythm, ventricular tachycardia). […] Heart rate and arrhythmia burden were quantified for two continuous minutes every five minutes (40% of total rhythm was counted) and presented as daily averages.
Subjects were administered multiple trials antiarrhythmics and observed for acute response by continuous ECG monitoring. Intravenous agents were delivered as a bolus dose over 2 minutes. Oral agents were administrated by direct observation in a minimum of apples, apple sauce or pumpkin puree with daily feeding and dosed daily for dose escalation. A washout period of at least three days was provided between agents. Amiodarone was administered as the last agent for testing given concern for prolonged half-life and elimination kinetics. All agents were tested in at least two subjects.
In Phase 1 of the study, the inventors screened six canonical antiarrhythmic agents broadly targeting sodium channels, potassium channels, and beta-adrenergic receptors: lidocaine (Ib, sodium channel inhibitor), flecainide (Ic, sodium channel inhibitor), propafenone (Ic, sodium channel inhibitor), amiodarone (III, potassium channel inhibitor), sotalol (III, potassium channel inhibitor) and metoprolol (β1-adrenergic receptor inhibitor) for effect on EA heart rate and rhythm. In addition, the funny current/HCN4 channel antagonist, ivabradine, was tested (Table 1). This series were not meant to be definitive but rather to rapidly identify the candidate agents.

[2] = tested on: engraftment arrhythmia (EA); assay type: in vivo; settings: chronic amiodarone
Description: as §1
Data are presented as mean±standard error of the mean (SEM).

[3] = Amiodarone drug monitoring by liquid chromatography-mass spectrometry; assay type: in vivo; settings: trough, within 1 week of discontinuation of chronic oral amiodarone, 6 pigs, mean ± SEM
Description: FIG. 8 Plasma amiodarone levels in pigs. Amiodarone levels were measured in plasma by a custom liquid chromatography-mass spectrometry assay. Chronic oral amiodarone in six pigs was discontinued after achieving electrical maturation and stabilization of engraftment arrythmia. Serum through concentrations of amiodarone were assayed weekly including 3-4 weeks after discontinuation.
A novel liquid chromatography—mass spectrometry assay was established for amiodarone to monitor steady state serum levels in the porcine model and guide oral dosing to ensure efficacy and avoid dose-related toxicity. A target serum level of 1.5-4.0 μg/ml was extrapolated from prior human pharmacokinetic studies (16,17). Elimination kinetics after discontinuation of oral amiodarone therapy were also studied by obtaining weekly trough concentrations in 6 pigs (subjects 6, 7, 8, 13, 14, 16) (FIG. 8).

CCCCc1oc2ccccc2c1C(=O)c1cc(I)c(OCCN(CC)CC)c(I)c1 [Amiodarone, amiodarone]
Effect on HR (heart rate) during EA [1]: Modest HR effect | Burden of EA, chronic treatment (in words) [2]: reduced the burden of EA chronically | Average serum amiodarone after discontinuation [3]: 0.42 ± 0.12 µg/mL

O=C(NCC1CCCCN1)c1cc(OCC(F)(F)F)ccc1OCC(F)(F)F (stereo not shown) [Flecainide, flecainide]
Effect on HR (heart rate) during EA [1]: No response on HR | Effect: response on EA burden [1]: No response | Effect on EA heart rate and rhythm in the screen (overall) [1]: no significant effect

COc1cc2c(cc1OC)CC(=O)N(CCCN(C)C[C@H]1Cc3cc(OC)c(OC)cc31)CC2 [Ivabradine, ivabradine]
Effect: response on EA burden [1]: effect (PO only)**, no | Effect on HR (heart rate) during EA ([1]; listed as ivabradine): robust dose-dependent effects on heart rate | Effect on rhythm: cardioversion / restoration of sinus rhythm ([1]; listed as ivabradine): did not restore sinus rhythm | Adverse effects observed in screening ([1]; minipig, in vivo): **Severe bradycardia

CCN(CC)CC(=O)Nc1c(C)cccc1C [Lidocaine, lidocaine]
Effect on HR (heart rate) during EA [1]: Modest HR effect | Effect on rhythm: cardioversion / restoration of sinus rhythm [1]: rare | Effect on EA heart rate and rhythm in the screen (overall) [1]: no significant effect

COCCc1ccc(OCC(O)CNC(C)C)cc1 (stereo not shown) [Metoprolol, metoprolol]
Effect on HR (heart rate) during EA [1]: Moderate HR effect (IV only), | Effect: response on EA burden [1]: no response on EA burden | Effect on EA heart rate and rhythm in the screen (overall) [1]: no significant effect

CC(C)NCC(O)c1ccc(NS(C)(=O)=O)cc1 (stereo not shown) [Sotalol, sotalol]
Effect on HR (heart rate) during EA [1]: No response on HR | Effect: response on EA burden [1]: No response | Effect on EA heart rate and rhythm in the screen (overall) [1]: no significant effect
